Test results from patent US11357230B2, “Herbicidal amides” (FMC Corporation, priority 2017, dated 2022).

Key:
Format in all cases: in vivo
[1] = system: barnyardgrass (Echinochloa crus-galli); test: Test A postemergence, barnyardgrass; settings: approximately 10 d
Source text: (§1) Seeds of plant species selected from barnyardgrass (Echinochloa crus-galli), kochia (Kochia scoparia), ragweed (common ragweed, Ambrosia elatior), ryegrass, Italian (Italian ryegrass, Lolium multiflorum), foxtail, green (green foxtail, Setaria viridis), and pigweed (Amaranthus retroflexus) were planted into a blend of loam soil and sand and treated preemergence with a directed soil spray using test chemicals formulated in a non-phytotoxic solvent mixture which included a surfactant. At the same time, plants selected from these weed species and also wheat (Triticum aestivum), corn (Zea mays), blackgrass (Alopecurus myosuroides), and galium (catchweed bedstraw, Galium aparine) were planted in pots containing the same blend of loam soil and sand and treated with postemergence applications of test chemicals formulated in the same manner. Plants ranged in height from 2 to 10 cm and were in the one- to two-leaf stage for the postemergence treatment. Treated plants and untreated controls were maintained in a greenhouse for approximately 10 d, after which time all treated plants were compared to untreated controls and visually evaluated for injury. Plant response ratings, summarized in Table A, are based on a 0 to 100 scale where 0 is no effect and 100 is complete control. A dash (-) response means no test result.

[2] = system: blackgrass (Alopecurus myosuroides); test: Test A postemergence, blackgrass; settings: approximately 10 d
Source text: as §1

corn (Zea mays) = test: Test A postemergence, corn; settings: approximately 10 d
Source text: as §1

[3] = system: foxtail, green (green foxtail, Setaria viridis); test: Test A postemergence, green foxtail; settings: approximately 10 d
Source text: as §1

[4] = system: galium (catchweed bedstraw, Galium aparine); test: Test A postemergence, galium; settings: approximately 10 d
Source text: as §1

kochia (Kochia scoparia) [5] = test: Test A postemergence, kochia; settings: approximately 10 d
Source text: as §1

[6] = system: pigweed (Amaranthus retroflexus); test: Test A postemergence, pigweed; settings: approximately 10 d
Source text: as §1

[7] = system: ragweed (common ragweed, Ambrosia elatior); test: Test A postemergence, ragweed; settings: approximately 10 d
Source text: as §1

[8] = system: ryegrass, Italian (Italian ryegrass, Lolium multiflorum); test: Test A postemergence, Italian ryegrass; settings: approximately 10 d
Source text: as §1

[9] = system: wheat (Triticum aestivum); test: Test A postemergence, wheat; settings: approximately 10 d
Source text: as §1

[10] = system: barnyardgrass (Echinochloa crus-galli); test: Test A preemergence, barnyardgrass; settings: approximately 10 d
Source text: as §1

[11] = system: foxtail, green (green foxtail, Setaria viridis); test: Test A preemergence, green foxtail; settings: approximately 10 d
Source text: as §1

kochia (Kochia scoparia) [12] = test: Test A preemergence, kochia; settings: approximately 10 d
Source text: as §1

[13] = system: pigweed (Amaranthus retroflexus); test: Test A preemergence, pigweed; settings: approximately 10 d
Source text: as §1

[14] = system: ragweed (common ragweed, Ambrosia elatior); test: Test A preemergence, ragweed; settings: approximately 10 d
Source text: as §1

[15] = system: ryegrass, Italian (Italian ryegrass, Lolium multiflorum); test: Test A preemergence, Italian ryegrass; settings: approximately 10 d
Source text: as §1

[16] = system: barnyardgrass (Echinochloa crus-galli); test: Test B flooded paddy test, barnyardgrass; settings: 250 g ai/ha, Flood (paddy water), 13 to 15 d
Procedure: (§2) Plant species in the flooded paddy test selected from rice (Oryza sativa), sedge, umbrella (small-flower umbrella sedge, Cyperus difformis), ducksalad (Heteranthera limosa), and barnyardgrass (Echinochloa crus-galli) were grown to the 2-leaf stage for testing. At time of treatment, test pots were flooded to 3 cm above the soil surface, treated by application of test compounds directly to the paddy water, and then maintained at that water depth for the duration of the test. Treated plants and controls were maintained in a greenhouse for 13 to 15 d, after which time all species were compared to controls and visually evaluated. Plant response ratings, summarized in Table B, are based on a scale of 0 to 100 where 0 is no effect and 100 is complete control. A dash (-) response means no test result.

[17] = system: ducksalad (Heteranthera limosa); test: Test B flooded paddy test, ducksalad; settings: 250 g ai/ha, Flood (paddy water), 13 to 15 d
Procedure: as §2

rice (Oryza sativa) = test: Test B flooded paddy test, rice; settings: 250 g ai/ha, Flood (paddy water), 13 to 15 d
Procedure: as §2

[18] = system: sedge, umbrella (small-flower umbrella sedge, Cyperus difformis); test: Test B flooded paddy test, umbrella sedge; settings: 250 g ai/ha, Flood (paddy water), 13 to 15 d
Procedure: as §2

Foxtail, Giant [19] = test: Test A postemergence, giant foxtail; settings: approximately 10 d
Foxtail, Giant [20] = test: Test A preemergence, giant foxtail; settings: approximately 10 d

SMILES	Plant response rating (0 to 100 scale, 0 is no effect, 100 is complete control) ([1]; 31 g ai/ha)	Plant response rating (0 to 100 scale, 0 is no effect, 100 is complete control) ([1]; 125 g ai/ha)	Plant response rating (0 to 100 scale, 0 is no effect, 100 is complete control) ([2]; 31 g ai/ha)	Plant response rating (0 to 100 scale, 0 is no effect, 100 is complete control) ([2]; 125 g ai/ha)	Plant response rating (0 to 100 scale, 0 is no effect, 100 is complete control) (corn (Zea mays); 31 g ai/ha)	Plant response rating (0 to 100 scale, 0 is no effect, 100 is complete control) (corn (Zea mays); 125 g ai/ha)	Plant response rating (0 to 100 scale, 0 is no effect, 100 is complete control) ([4]; 31 g ai/ha)	Plant response rating (0 to 100 scale, 0 is no effect, 100 is complete control) ([4]; 125 g ai/ha)	Plant response rating (0 to 100 scale, 0 is no effect, 100 is complete control) (kochia (Kochia scoparia) [5]; 31 g ai/ha)	Plant response rating (0 to 100 scale, 0 is no effect, 100 is complete control) (kochia (Kochia scoparia) [5]; 125 g ai/ha)	Plant response rating (0 to 100 scale, 0 is no effect, 100 is complete control) ([6]; 31 g ai/ha)	Plant response rating (0 to 100 scale, 0 is no effect, 100 is complete control) ([6]; 125 g ai/ha)	Plant response rating (0 to 100 scale, 0 is no effect, 100 is complete control) ([7]; 31 g ai/ha)	Plant response rating (0 to 100 scale, 0 is no effect, 100 is complete control) ([7]; 125 g ai/ha)	Plant response rating (0 to 100 scale, 0 is no effect, 100 is complete control) ([8]; 31 g ai/ha)	Plant response rating (0 to 100 scale, 0 is no effect, 100 is complete control) ([8]; 125 g ai/ha)	Plant response rating (0 to 100 scale, 0 is no effect, 100 is complete control) ([9]; 31 g ai/ha)	Plant response rating (0 to 100 scale, 0 is no effect, 100 is complete control) ([9]; 125 g ai/ha)	Plant response rating (0 to 100 scale, 0 is no effect, 100 is complete control) ([10]; 31 g ai/ha)	Plant response rating (0 to 100 scale, 0 is no effect, 100 is complete control) ([10]; 125 g ai/ha)	also measured
CN1C[C@H](c2ccc(C(F)(F)F)cc2)[C@@H](C(=O)Nc2cccc(F)c2F)C1=NN [Compound 2, (3R,4S)—N-(2,3-difluorophenyl)-2-hydrazinylidene-1-methyl-4-[4-(trifluoromethyl)phenyl]-3-pyrrolidinecarboxamide]	20	60	0	30	10	10	60	60	0	0	0	40	0	0	0	30	0	0	70	90	Plant response rating (0 to 100 scale, 0 is no effect, 100 is complete control) ([3]; 31 g ai/ha): 30; Plant response rating (0 to 100 scale, 0 is no effect, 100 is complete control) ([3]; 125 g ai/ha): 70; Plant response rating (0 to 100 scale, 0 is no effect, 100 is complete control) ([11]; 31 g ai/ha): 70; Plant response rating (0 to 100 scale, 0 is no effect, 100 is complete control) ([11]; 125 g ai/ha): 100; Plant response rating (0 to 100 scale, 0 is no effect, 100 is complete control) (kochia (Kochia scoparia) [12]; 31 g ai/ha): 0; Plant response rating (0 to 100 scale, 0 is no effect, 100 is complete control) (kochia (Kochia scoparia) [12]; 125 g ai/ha): 60; Plant response rating (0 to 100 scale, 0 is no effect, 100 is complete control) ([13]; 31 g ai/ha): 0; Plant response rating (0 to 100 scale, 0 is no effect, 100 is complete control) ([13]; 125 g ai/ha): 80; Plant response rating (0 to 100 scale, 0 is no effect, 100 is complete control) ([14]; 31 g ai/ha): 0; Plant response rating (0 to 100 scale, 0 is no effect, 100 is complete control) ([14]; 125 g ai/ha): 40; Plant response rating (0 to 100 scale, 0 is no effect, 100 is complete control) ([15]; 31 g ai/ha): 0; Plant response rating (0 to 100 scale, 0 is no effect, 100 is complete control) ([15]; 125 g ai/ha): 0; Plant response rating (scale of 0 to 100, 0 is no effect, 100 is complete control) [16]: 40; Plant response rating (scale of 0 to 100, 0 is no effect, 100 is complete control) [17]: 0; Plant response rating (scale of 0 to 100, 0 is no effect, 100 is complete control) (rice (Oryza sativa)): 0; Plant response rating (scale of 0 to 100, 0 is no effect, 100 is complete control) [18]: 50
CC(=O)NN=C1[C@H](C(=O)Nc2cccc(F)c2F)[C@@H](c2ccc(C(F)(F)F)cc2)CN1C (relative stereo) [Compound 5]	60	80	60	80	0	40	70	80	20	30	30	80	0	0	10	80	0	50	90	90	Plant response rating (0 to 100 scale, 0 is no effect, 100 is complete control) (Foxtail, Giant [19]; 31 g ai/ha): 70; Plant response rating (0 to 100 scale, 0 is no effect, 100 is complete control) (Foxtail, Giant [19]; 125 g ai/ha): 80; Plant response rating (0 to 100 scale, 0 is no effect, 100 is complete control) (Foxtail, Giant [20]; 31 g ai/ha): 90; Plant response rating (0 to 100 scale, 0 is no effect, 100 is complete control) (Foxtail, Giant [20]; 125 g ai/ha): 90; Plant response rating (0 to 100 scale, 0 is no effect, 100 is complete control) (kochia (Kochia scoparia) [12]; 31 g ai/ha): 10; Plant response rating (0 to 100 scale, 0 is no effect, 100 is complete control) (kochia (Kochia scoparia) [12]; 125 g ai/ha): 90; Plant response rating (0 to 100 scale, 0 is no effect, 100 is complete control) ([13]; 31 g ai/ha): 70; Plant response rating (0 to 100 scale, 0 is no effect, 100 is complete control) ([13]; 125 g ai/ha): 80; Plant response rating (0 to 100 scale, 0 is no effect, 100 is complete control) ([14]; 31 g ai/ha): 0; Plant response rating (0 to 100 scale, 0 is no effect, 100 is complete control) ([14]; 125 g ai/ha): 70; Plant response rating (0 to 100 scale, 0 is no effect, 100 is complete control) ([15]; 31 g ai/ha): 20; Plant response rating (0 to 100 scale, 0 is no effect, 100 is complete control) ([15]; 125 g ai/ha): 90; Plant response rating (scale of 0 to 100, 0 is no effect, 100 is complete control) [16]: 45; Plant response rating (scale of 0 to 100, 0 is no effect, 100 is complete control) [17]: 65; Plant response rating (scale of 0 to 100, 0 is no effect, 100 is complete control) (rice (Oryza sativa)): 0; Plant response rating (scale of 0 to 100, 0 is no effect, 100 is complete control) [18]: 0
